Test results from patent US8507479B2, “Aminodihydrothiazine derivatives substituted with a cyclic group” (Shionogi & Co., Ltd., priority 2007, dated 2013).
pIC50: −log10 of the molar value.

target: Recombinant human BACE-1 (Homo sapiens (Human), UniProt P56817); assay: Assay of β-secretase-inhibiting activity; type: biochemical; details: Recombinant human BACE-1, Table 139; read-out: IC50;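 note: enzyme cleavage of a biotinylated, Europium cryptate-labelled peptide substrate, incubated 3 h at 30 °C, then probed with Streptavidin-XL665 in KF-containing phosphate buffer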
Sequence (P56817 46-501): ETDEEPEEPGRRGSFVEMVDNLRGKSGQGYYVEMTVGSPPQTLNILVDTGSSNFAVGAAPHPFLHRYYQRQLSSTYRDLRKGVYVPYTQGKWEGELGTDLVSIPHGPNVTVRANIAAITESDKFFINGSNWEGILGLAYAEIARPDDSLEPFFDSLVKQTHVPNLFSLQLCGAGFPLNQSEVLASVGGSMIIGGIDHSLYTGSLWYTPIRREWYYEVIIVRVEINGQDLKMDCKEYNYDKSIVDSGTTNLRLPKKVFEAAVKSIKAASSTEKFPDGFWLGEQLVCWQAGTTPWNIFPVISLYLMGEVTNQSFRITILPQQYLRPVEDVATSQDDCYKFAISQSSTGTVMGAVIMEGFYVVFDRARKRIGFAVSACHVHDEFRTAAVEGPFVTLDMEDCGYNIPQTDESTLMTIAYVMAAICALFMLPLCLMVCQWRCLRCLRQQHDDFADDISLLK

pIC50 | Compound
5.31 | C[C@@]1(c2cccc(N/C(=N/O)c3ncc(Cl)cc3Cl)c2)CCSC(N)=N1 [Compound 26]

same assay, conditions: Recombinant human BACE-1, same assay, table; read-out: IC50

pIC50 | Compound
6.70 | C[C@@]1(c2cc(NC(=O)c3cnc(NCC#N)cn3)ccc2F)CCSC(N)=N1 [Compound 701]

same assay, conditions: substrate peptide 18 nM, BACE-1 7.4 nM, pH 5.0, 30° C., 3 hours; read-out: IC50 values

Compound | pIC50
C[C@@]1(c2cc(NC(=O)c3ncc(O)cc3F)ccc2F)CCSC(N)=N1 [Compound 491] | ≥ 6.00
C[C@@]1(c2cc(NC(=O)c3cnc(-c4ccsc4)cn3)ccc2F)CCSC(N)=N1 [Compound 537] | ≥ 6.00
Cc1cnn(-c2cnc(C(=O)Nc3ccc(F)c([C@]4(C)CCSC(N)=N4)c3)cn2)c1 [Compound 577] | ≥ 6.00
Cc1cnc(C(=O)Nc2cc([C@]3(C)CCSC(N)=N3)c3oc(C)cc3c2)cn1 [Compound 468] | ≥ 6.00
C[C@@]1(c2cncc(NC(=O)c3cnc(Cl)cn3)c2)CCSC(N)=N1 [Compound 597] | ≥ 6.00
C[C@@]1(c2cc(NC(=O)c3cnc(N=NN)cn3)ccc2F)CCSC(N)=N1 [Compound 79] | ≥ 6.00
Cc1nc(C)c(C(=O)Nc2cccc([C@]3(C)CCSC(N)=N3)c2)s1 [Compound 8] | ≥ 6.00
COCCOc1cnc(C(=O)Nc2cc(F)c(F)c([C@]3(C)CCSC(N)=N3)c2)cn1 [Compound 148] | ≥ 6.00
CC1(c2cc(NC(=O)c3cnc(Cl)cn3)ccc2Br)CCSC(N)=N1 (stereo not shown) [Compound 517] | ≥ 6.00
Cc1cn2cc(C(=O)Nc3ccc(F)c([C@]4(C)CCSC(N)=N4)c3)ncc2n1 [Compound 652] | ≥ 6.00
C[C@@]1(c2cc(NC(=O)c3ccc(OCC(N)=O)cn3)ccc2F)CCSC(N)=N1 [Compound 559] | ≥ 6.00
Cc1cnc(C(=O)Nc2cccc([C@]3(C)CCSC(N)=N3)c2)cn1 [Compound 563] | ≥ 6.00
Cc1nc(C(=O)Nc2ccc(F)c([C@]3(C)CCSC(N)=N3)c2)cs1 [Compound 505] | ≥ 6.00
Cc1cc(C(=O)Nc2ccc(F)c([C@]3(C)CCSC(N)=N3)c2)n(C(C)(C)C)n1 [Compound 538] | ≥ 6.00
Cn1nc(Cl)cc1C(=O)Nc1cncc([C@]2(C)CCSC(N)=N2)c1 [Compound 478] | ≥ 6.00
COc1cnc(C(=O)Nc2cccc([C@]3(C)CCSC(N)=N3)c2)c(N)n1 [Compound 29] | ≥ 6.00
C[C@@]1(c2cc(NC(=O)c3cn4ccccc4n3)ccc2F)CCSC(N)=N1 [Compound 502] | ≥ 6.00
CC(=O)c1ccc(C(=O)Nc2ccc(F)c([C@]3(C)CCSC(N)=N3)c2)s1 [Compound 530] | ≥ 6.00
Cc1nc(C(=O)Nc2cncc([C@]3(C)CCSC(N)=N3)c2)c(C)o1 [Compound 461] | ≥ 6.00
C[C@@]1(c2cc(NC(=O)c3ccc(OCC#CCN)cn3)ccc2F)CCSC(N)=N1 [Compound 566] | ≥ 6.00
Cc1nc(C(=O)Nc2cccc([C@]3(C)CCSC(N)=N3)c2)cs1 [Compound 10] | ≥ 6.00
Cc1nc(Br)sc1C(=O)Nc1cccc([C@]2(C)CCSC(N)=N2)c1 [Compound 6] | ≥ 6.00

Now from value to compound:

pIC50 | Compound
≥ 6.00 | Cc1cnc(C(=O)Nc2ccc(F)c([C@@]3(C)N=C(N)SCC34CC4)c2)cn1 [Compound 674]
≥ 6.00 | CC1(C)C[C@@](C)(c2cc(NC(=O)c3coc(Cl)n3)ccc2F)N=C(N)S1 [Compound 645]
≥ 6.00 | CCCCc1ccc(C(=O)Nc2ccc(F)c([C@@]3(C)N=C(N)SCC3(F)F)c2)nc1 [Compound 665]
≥ 6.00 | COc1cnc(C(=O)Nc2ccc(F)c([C@@]3(C)N=C(N)SCC3=O)c2)cn1 [Compound 689]
≥ 6.00 | C[C@@]1(c2cc(NC(=O)c3coc(C(F)(F)F)n3)ccc2F)CCSC(N)=N1 [Compound 669]
≥ 6.00 | Cc1nc(C(=O)Nc2ccnc([C@]3(C)CC(C)(C)SC(N)=N3)c2)co1 [Compound 654]
≥ 6.00 | Cc1nc(C(=O)Nc2ccc(F)c([C@@]3(C)N=C(N)SCC3(F)F)c2)co1 [Compound 664]
≥ 6.00 | C[C@@]1(c2cccc(NC(=O)c3ccc(Cl)cn3)n2)CCSC(N)=N1 [Compound 599]
≥ 6.00 | CC1(C)C[C@@](C)(c2cccc(NC(=O)c3ccc(C#N)cn3)c2)N=C(N)S1 [Compound 696]
≥ 6.00 | Cc1cnc(C(=O)Nc2ccc(F)c([C@@]3(C)N=C(N)SCC3(F)F)c2)cn1 [Compound 662]
≥ 6.00 | COc1nc(C(=O)Nc2ccc(F)c([C@]3(C)CCSC(N)=N3)c2)co1 [Compound 667]
≥ 6.00 | C[C@@]1(c2ccnc(NC(=O)c3ccc(Cl)cn3)c2)CCSC(N)=N1 [Compound 598]
≥ 6.00 | CC1(C)C[C@@](C)(c2cc(NC(=O)c3ccc(O)cn3)ccc2F)N=C(N)S1 [Compound 650]
≥ 6.00 | CC1(C)C[C@@](C)(c2cc(NC(=O)c3ncccc3F)ccn2)N=C(N)S1 [Compound 655]
≥ 6.00 | Cc1nc(C(=O)Nc2ccc(F)c([C@@]3(C)N=C(N)SCC3(C)C)c2)co1 [Compound 648]
≥ 6.00 | C[C@]1(c2cc(NC(=O)c3ncccc3F)ccc2F)N=C(N)SCC1(F)F [Compound 660]
